Laboratory results published in ChEMBL document CHEMBL5727277, “Heteroarylcarboxamide derivatives as plasma kallikrein inhibitors” (2019).

Biological target: Plasma kallikrein (Homo sapiens, UniProt P03952)
Assay: Subsequently, PPACK II (Calbiochem) was added as a stop solution to achieve a final concentration of 1 μM and fluorescence was measured using an Envision Reader (PerkinElmer) with the wavelength excitation setting of 355 nm and the wavelength emission setting of 460 nm.Evaluation of the Inhibition of Human KLKB1 in Dextransulfat Activated Human PPP.Platelet poor plasma (PPP) obtained from human wholeblood, anticoagulated with EDTA, was activated with 12.5 μg/mL dextransulfate for 7 min on ice. The activated PPP was incubated with various concentrations of the test compound in assay buffer. […] Measurements were performed in a kinetic interval every 2nd minute for 16 min using a Spectramax M5 (Molecular Devices) with the following settings of the wavelength excitation of 350 nm and wavelength emission of 450 nm.

Chain of Plasma kallikrein (P03952 20-390 limits assumed): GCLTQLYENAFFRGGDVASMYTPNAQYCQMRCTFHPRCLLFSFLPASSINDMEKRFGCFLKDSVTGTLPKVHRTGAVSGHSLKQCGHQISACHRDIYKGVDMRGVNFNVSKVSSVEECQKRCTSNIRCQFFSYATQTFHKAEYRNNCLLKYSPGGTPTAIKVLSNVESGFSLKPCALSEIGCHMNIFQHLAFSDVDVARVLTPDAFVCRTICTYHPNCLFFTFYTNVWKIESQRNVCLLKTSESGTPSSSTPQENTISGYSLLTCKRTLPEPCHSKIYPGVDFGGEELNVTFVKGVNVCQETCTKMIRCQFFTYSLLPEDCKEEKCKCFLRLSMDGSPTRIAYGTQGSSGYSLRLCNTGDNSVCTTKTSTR
Chain of Plasma kallikrein (P03952 391-638 limits assumed): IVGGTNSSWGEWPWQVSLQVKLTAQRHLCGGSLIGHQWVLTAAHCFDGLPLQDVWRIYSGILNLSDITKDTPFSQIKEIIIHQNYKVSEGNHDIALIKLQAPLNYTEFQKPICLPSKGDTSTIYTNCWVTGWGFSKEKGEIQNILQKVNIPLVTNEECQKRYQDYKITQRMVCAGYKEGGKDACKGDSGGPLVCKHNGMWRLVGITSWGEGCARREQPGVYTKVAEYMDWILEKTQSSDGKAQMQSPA

Row | SMILES | IC50
1 | Cc1ccc2cc(Cn3cc(C(=O)N[C@H]4CCc5c4ccnc5N)nn3)ccc2n1 | 1900 nM
2 | Cc1ccc2cc(Cn3cc(C(=O)N[C@@H]4CCc5c4ccnc5N)nn3)ccc2n1 | 36 nM
